Assay results: US20250136722A1, “CYTOTOXICITY TARGETING CHIMERAS” (GLAXOSMITHKLINE INTELLECTUAL PROPERTY DEVELOPMENT LIMITED, priority 2021, published 2025)

Key:
[1] = test system: endogenous target monocytes in human PBMC; assay: PBMC ex vivo monocyte depletion flow cytometry assay (Example 200); assay type: cell-based; details: with anti-cotinine antibody SEQ ID NO: 11/12, 18-24 hours, read-out: Ex Vivo Depletion Assay pEC50 (converted)
Method: A human PBMC (peripheral blood mononuclear cells) monocyte depletion flow cytometry assay was developed to screen compounds in a 384-well plate format. This assay incorporated endogenous natural killer cells to deplete endogenous target monocytes.
To screen compounds in the human PBMC monocyte depletion flow cytometry assay, 11-point dose-response curves were made from 1 mM stocks in neat DMSO by serially diluting an ARM compound of Formula (I) four-fold into a 384-well plate row-wise. These serially diluted compounds were then stamped into a flat bottom polypropylene 384-well plate (Greiner Bio-One) at 100 nL/well. Fifty microliters of 30 μg/mL anti-cotinine antibody having a heavy chain sequence of SEQ ID NO: 11 and a light chain sequence of SEQ ID NO: 12 (rabbit variable region with human IgG1 Fc domain containing a DE mutation (S239D/1332E)) that had been diluted in assay medium (RPMI 1640 (Gibco) containing 10% fetal bovine serum (Gibco), 1% Glutamax (Gibco) and 1% sodium pyruvate (Corning) was added to the wells of the plate. The plate was centrifuged for 1 min at 500 rpm (revolutions per minute) and then shaken for 5 min at room temperature. The plate was incubated for 15 minutes at 37° C./5% CO2.
Frozen PBMC cells (HemaCare BioResearch) were thawed and centrifuged at 1,200 rpm for 4 minutes. The cells were diluted to a cell density of 2×10^6 cells/mL in assay medium. Fifty microliters of the diluted cells were added to the wells of the plate. The plate was centrifuged for 1 min at 500 rpm and incubated for 18-24 hours at 37° C./5% CO2.
After 18-24 hours incubation, 2 μL of 6.25 μg human FC block (BD Pharmingen) that was diluted in assay medium was added to the wells of the plate. The plate was centrifuged for 1 minute at 500 rpm and then incubated at room temperature for 15 minutes. Five microliters of 750 nM Helix NP NIR (Biolegend) that had been diluted in assay medium was added to the wells of the plate. Nine microliters of antibody cocktail containing 1/5 diluted fluorescein isothiocyanate (FITC) labeled anti-CD45 antibody (Beckman Coulter), PC7 labeled anti-CD14 antibody (Beckman Coulter) and phycoerythrin (PE) anti-CD4 antibody (Beckman Coulter) was then added to the wells of the plate. The plate was centrifuged for 1 min at 500 rpm and incubated for 30 minutes at 4-8° C. Samples from the plate were run on BD FACS Canto II flow cytometer and data was analyzed using FlowJo software.
ARMs compounds of Formula (I) of the invention were tested for the ability to deplete monocytes in the above assay in one or more experimental runs and the results are shown in Table 3 below. Potency of the compounds of the invention is reported as a pEC50 value. The pEC50 value is the negative log of the EC50 value, wherein the EC50 value is the half maximal effective concentration measured in molar (M). For compounds tested in more than one experimental run, the pEC50 value is reported as an average or as the individual values measured

[2] = test system: CCR2 expressing cells (CD11b+Ly6c+ Hi) in peripheral blood; assay: In vivo depletion assay, flow cytometry of peripheral blood (Example 201); parameters: species or system Human CCR2 (hCCR2) knock-in mice (C57 background); details: hCCR2 knock-in mice; IV 0.1 mpk compound + 10 mpk anti-cotinine antibody (SEQ ID NO: 13/14); peripheral blood at 48 hr
Method: Stock solution preparation: Stock solutions of compounds of Formula (I) were prepared at 20 mg/mL and 100 mg/mL in DMSO for PK/PD and dose tolerability studies respectively. Stock solutions were stored at −20° C. until further usage.
Formulations preparation: On the day of experiment, the stock solution of the compound of Formula (I) was removed from storage at −20° C. and thawed at room temperature. Anti-cotinine antibody having a heavy chain sequence of SEQ ID NO: 13 and a light chain sequence of SEQ ID NO: 14 (rabbit variable region sequence with mouse IgG2a Fc domain), if required was removed from storage at −80° C. and thawed at room temperature. Antibody vials were immediately transferred into wet ice after thawing. Compounds of Formula (I) were further diluted in DMSO as per experimental requirements.
Formulation composition: The formulation composition was Saline:DMSO:PBS. Saline was added based on the quantity required and then stock solution of the compound of Formula (I) prepared in DMSO, followed by addition of antibody in PBS. Formulations were incubated at room temperature for 30 minutes before administration to the mouse. DMSO was used at 1 to 2% (v/v) in the final formulation.
After bleeding, each mouse was sacrificed by cervical dislocation.
CCR2 depletion in peripheral blood was determined by flow cytometry. Briefly, peripheral blood was collected from all animals at the end of study termination and processed. Blood samples were lysed using 1× RBC Lysis buffer and the resulting cell pellet was washed twice in FACS buffer (HBSS containing 5% FBS). Cells were subjected to Fc blocking using mouse Fc block from Biolegend (Trustain, anti-mouse CD16/32, Cat: 101319) to block non-specific binding followed by surface staining for immune markers (CD45, CD3, CD11b, Ly6C, human CCR2). Surface staining was done for 30 minutes in ice and cells were washed twice to remove unbound antibodies. Cells were stained with 7AAD to determine viability and acquired on BD FACSVerse flow cytometer. Appropriate FMO controls and single-color controls were included in the experiment for gating and compensation respectively.
Percent depletion of CD11b+Ly6c+ Hi cells and CCR2 expression for the different treatment groups was determined.

SMILES	EC50 [1]	% Depletion of CCR2 expressing cells [2]
CN1C(=O)C[C@H](C(=O)NCCOCCOCCOCCOCCOCCC(=O)N[C@@H]2C[C@H](NC(C)(C)C)CC[C@@H]2N2CC[C@H](Nc3ncnc4ccc(C(F)(F)F)cc34)C2=O)[C@H]1c1cccnc1 [Example 37]	5.01 nM	75%
CN1C(=O)C[C@H](C(=O)NCCOCCOCCOCCOCCOCCOCCC(=O)N[C@@H]2C[C@H](NC(C)(C)C)CC[C@@H]2N2CC[C@H](Nc3ncnc4ccc(C(F)(F)F)cc34)C2=O)[C@H]1c1cccnc1 [Example 38]	1.58 nM	84.55%
